Reference: patent US20200246352A1, “Vanadyl and vanadate for use in reducing stress-induced metabolic derangement” (CFM Pharma Holding B.V., priority 2017, published 2020)
Several values for one entry are separate records, joined by “and”; a condition that tells them apart may be missing. Equal entries are not always repeated. Where two headings read alike, the source gives them in different places.

Test system: healthy male Wistar rats
Settings: for Effect of adrenaline infusion on blood glucose level: 0.1, 0.3 or 1 μg/kg/min infusion for 180 min; for Blood glucose levels, individual animals in duplicate: medium adrenaline dose (MA) 0.3 μg/kg/min
Experimental: In the first part of the study (Table 1, Table 3, series 1), thirteen (13) healthy male Wistar rats were anesthetized by intraperitoneal (ip.) injection of thiopental (Tiobarbital 0.5 g, Braun Medical SA) after 12 hours of fasting.

SMILES: CNCC(O)c1ccc(O)c(O)c1 (stereo not shown) [adrenaline]
- Effect of adrenaline infusion on blood glucose level: inflicts hyperglycemic state in an adrenaline dose dependent manner
- Effect of adrenaline infusion on blood glucose level (listed as Adrenaline): dose-dependent continuous increase in blood glucose level
- Blood glucose level, mean (high dose 1 μg/kg/min infusion, 0 min (before infusion)): 5.39 mM/l
- Blood glucose level, mean (high dose 1 μg/kg/min infusion, 15 min): 5.46 mM/l
- Blood glucose level, mean (high dose 1 μg/kg/min infusion, 30 min): 5.69 mM/l
- Blood glucose level, mean (high dose 1 μg/kg/min infusion, 45 min): 6.62 mM/l
- Blood glucose level, mean (high dose 1 μg/kg/min infusion, 60 min): 7.93 mM/l
- Blood glucose level, mean (high dose 1 μg/kg/min infusion, 90 min): 10.95 mM/l
- Blood glucose level, mean (high dose 1 μg/kg/min infusion, 120 min): 13.25 mM/l
- Blood glucose level, mean (high dose 1 μg/kg/min infusion, 150 min): 13.65 mM/l
- Blood glucose level, mean (high dose 1 μg/kg/min infusion, 180 min): 13.81 mM/l
- Time of peak blood glucose level after start of infusion (highest dose 1 μg/kg/min): around 120 min
- Blood glucose level, mean (low dose 0.1 μg/kg/min infusion, 0 min (before infusion)): 5.09 mM/l
- Blood glucose level, mean (low dose 0.1 μg/kg/min infusion, 15 min): 5.31 mM/l
- Blood glucose level, mean (low dose 0.1 μg/kg/min infusion, 30 min): 5.26 mM/l
- Blood glucose level, mean (low dose 0.1 μg/kg/min infusion, 45 min): 5.18 mM/l
- Blood glucose level, mean (low dose 0.1 μg/kg/min infusion, 60 min): 5.70 mM/l
- Blood glucose level, mean (low dose 0.1 μg/kg/min infusion, 90 min): 6.16 mM/l
- Blood glucose level, mean (low dose 0.1 μg/kg/min infusion, 120 min): 7.09 mM/l
- Blood glucose level, mean (low dose 0.1 μg/kg/min infusion, 150 min): 7.89 mM/l
- Blood glucose level, mean (low dose 0.1 μg/kg/min infusion, 180 min): 8.34 mM/l
- Blood glucose levels, individual animals in duplicate (30 min): 6.0 mM/l (2×) and 5.9 mM/l
- Blood glucose levels, individual animals in duplicate (45 min): 4.7 mM/l and 4.3 mM/l and 5.7 mM/l
- Blood glucose levels, individual animals in duplicate (60 min): 6.4 mM/l (2×) and 6.7 mM/l
- Blood glucose levels, individual animals in duplicate (90 min): 6.0 mM/l and 7.4 mM/l and 9.5 mM/l
- Blood glucose levels, individual animals in duplicate (120 min): 8.7 mM/l and 8.9 mM/l and 11.7 mM/l
- Blood glucose levels, individual animals in duplicate (150 min): 7.5 mM/l and 7.1 mM/l and 12.8 mM/l
- Blood glucose levels, individual animals in duplicate (180 min): 5.3 mM/l (2×) and 13.2 mM/l
- Blood glucose level, mean (medium dose 0.3 μg/kg/min infusion, 0 min (before infusion)): 5.53 mM/l
- Blood glucose level, mean (medium dose 0.3 μg/kg/min infusion, 15 min): 6.45 mM/l
- Blood glucose level, mean (medium dose 0.3 μg/kg/min infusion, 30 min): 6.36 mM/l
- Blood glucose level, mean (medium dose 0.3 μg/kg/min infusion, 45 min): 6.34 mM/l
- Blood glucose level, mean (medium dose 0.3 μg/kg/min infusion, 60 min): 7.85 mM/l
- Blood glucose level, mean (medium dose 0.3 μg/kg/min infusion, 90 min): 10.15 mM/l
- Blood glucose level, mean (medium dose 0.3 μg/kg/min infusion, 120 min): 11.36 mM/l
- Blood glucose level, mean (medium dose 0.3 μg/kg/min infusion, 150 min): 10.96 mM/l
- Blood glucose level, mean (medium dose 0.3 μg/kg/min infusion, 180 min): 10.19 mM/l
